Experiment [1] deals with PLTP. Kind of experiment: PLTP release into conditioned media (Western blot). The class given is cell-based. The procedure: (§1) FIG. 10. Release of adiponectin and PLTP by preadipocytes and adipocytes, and in serum of normal mice. Preadipocytes (B and D) were treated with 2 μM of prieurianin and media collected after 36 hrs for Western blot analysis of either adiponectin (A and B) or PLTP (C and D). Alternatively, five days following differentiation, conditioned media of adipocyets (A and C) were collected for Western analysis. E. Serum of normal C57BL/6J mice given prieurianin or topotecan (0, 2, 5, and 10 mg/kg) was analyzed by Western blot for PLTP.
The expression and secretion of PLTP by preadipocytes and adipocytes was also assessed. Thus, preadipocytes produced and released both the low and the high molecular weight forms of PLTP, while adipocytes secreted only the low molecular weight form (see FIGS. 10C and 10D) into the conditioned media.

Experiment [2] concerns phospholipid transfer protein (PLTP) gene expression. Kind of experiment: PLTP gene expression in HepG2 cells by DNA microarray and Northern blot. In kind it is cell-based, human. The procedure:
The patent or application file contains at least one drawing executed in color. Copies of this patent with color drawings will be provided by the United States Patent and Trademark Office upon request and payment of necessary fee. FIG. 1. Pharmacological response of HepG2 cells to topotecan by DNA Microarray. HepG2 cells were treated with 500 nM for various times (A) or with various concentrations of topotecan (B) for 24 hrs. Dendrogram of the expression changes of the phospholipid transfer protein (PLTP) is shown. (C) Induction of PLTP expression by topotecan was confirmed independently by Northern blot analysis.
The mechanisms of resistance to topoisomerase (Top) 1 inhibitors by expression genomics were studied by conducting time-course and dose-response experiments by DNA microarray to investigate the pharmacological response of the human hepatocellular blastoma HepG2 cells to topotecan, which were either treated with 500 nM of topotecan (a cytotoxic anticancer agent) for various times (0, 1, 3, 5, 10, 15, and 24 hrs), or with various doses of topotecan (0, 10, 50, 100, 300, 500, and 1000 nM) for 24 hrs.
Activation of PLTP expression by topotecan was temporally regulated and dose dependent, with a late onset, peaking at 24 hrs with an approximately 20-fold induction.

The subject of experiment [3] is PLTP. Kind of experiment: Serum PLTP protein by Western blot in normal C57BL/6J mice. The class given is in vivo. Particulars: normal C57BL/6J mice, 0, 2, 5 and 10 mg/kg. The procedure:
as §1

Another experiment has as its system PLTP promoter. Kind of experiment: PLTP-promoter luciferase reporter in HepG2 and transgenic HepG2/PLTPpLuc cells. The note with it: for transactivation of PLTP promoter: luciferase reporter, HepG2 or HepG2/PLTPpLuc cells; for effect on transactivation of PLTP promoter by prieurianin: co-treatment with prieurianin, 200 nM staurosporine or 200 nM TSA. In kind it is cell-based, human. The source says:
FIG. 2A. A 1.5 Kb PLTP promoter fused to a luciferase reporter was transactivated by topotecan dose-dependently.
FIG. 2B. Activation of PLTP promoter by topotecan in HepG2 transgenic cells containing the PLTP-promoter luciferase reporter gene fused to the neomycin selectable marker cassette and stably transfected into HepG2 cells to generate the transgenic line (Top panel). Dose-dependent induction of PLTP promoter by topotecan (Bottom panel). Results are the means S.E. of three experiments after normalization with Renilla luciferase.
FIG. 3A. Dose-dependent transactivation of the PLTP promoter by prieurianin in the HepG2 transgenic cells. Results are the means S.E. of three experiments after normalization with Renilla luciferase.
FIG. 3B. […] 1, Control; 2. […] Results are the means±S.E. of triplicate experiments.
FIG. 11. Transactivation of PLTP promoter by cytotoxic and non-cytotoxic drugs. Survey of transactivation of the PLTP promoter by various cytotoxic and non-cytotoxic drugs in the HepG2 transgenic cells was conducted. Results are the means S.E. of three experiments.
FIG. 12. Effects of trichostatin A (TSA) on transactivation of PLTP promoter by prieurianin. Dose response activation of PLTP promoter by prieurianin either in the presence or the absence of 200 nM TSA. Results are the means S.E. of three experiments.
To determine whether non-cytotoxic small molecules could induce PLTP expression, the inventor herein subcloned the PLTP-promoter luciferase reporter into a vector containing a neomycin (G418)-resistance selectable marker and generated a transgenic HepG2 cell line, which harbors the PLTP-promoter luciferase reporter, by stable gene transfection and selection with G418.
The transgenic cells were then screened with a library of small molecules derived from natural products.
On the technique in general: In a reporter assay the amount or activity of a reporter protein is the signal.

Another experiment deals with adiponectin. Kind of experiment: Adiponectin release into conditioned media (Western blot). The class given is cell-based. The note with it: NIH-3T3/L1 preadipocytes, approximately 36 hrs after treatment. The procedure:
as §1
Adipose tissue contains various types of cells including preadipocytes and adipocytes. Also, preadipocytes secrete factors involved in their own differentiation. Once differentiated, the mature adipocytes acquire the ability to communicate distally with other organs including brain, liver, and skeletal muscle and locally with other cells such as preadipocytes, endothelial cells and monocytes/macrophages by secreting leptin and adiponectin. In addition, anti-adipogenic cytokines prevent the release of adiponectin by preadipocytes. Thus, the production of adiponectin and PLTP by preadipocytes and adipocytes was assessed.
For orientation: In western blotting, separated proteins are transferred to a membrane and probed.

A further experiment concerns NIH-3T3/L1 preadipocytes. Kind of experiment: Differentiation of NIH-3T3/L1 preadipocytes into adipocytes (oil red O or Nile Red staining). The class given is cell-based. The procedure:
FIG. 7. […] NIH-3T3/L1 cells were induced into differentiation and simultaneously treated with 2 μM of prieurianin. Differentiated cells were stained with oil red O—FIG. 7A, undifferentiated control.
Histogram represents A510 nm absorbance of oil red O stain isopropanol extracts from cells. Results are means±S.E. of triplicate experiments.
(§2) FIG. 19. Effects of bufalin on preadipocyte differentiation, and dedifferentiation/delipidation in adipo-cytes. NIH-3T3/L1 cells were induced into differentiation and simultaneously treated with either 1 μM of bufalin or 2 μM of prieurianin. Differentiated cells were stained with Nile Red. Alternatively, preadipocytes were induced into differentiation and five days following differentiation, cells were treated with either 1 μM of bufalin or 2 μM of prieurianin for an additional five days and followed by staining with Nile Red. Stained cells were evaluated by fluorescence microscopy.
To determine the effects of prieurianin on the differentiation of preadipocytes to adipocytes, the NIH-3T3/L1 preadipocytes were treated with or without the drug at the same time when induction of differentiation was initiated.

The next experiment deals with NFκB. Kind of experiment: NFκB-response element luciferase reporter in L1 preadipocytes. The class given is cell-based. The note with it: prieurianin 2 μM.
The next experiment relates to PPARγ. Kind of experiment: PPARγ response element luciferase reporter in L1 preadipocytes. The note with it: prieurianin 2 μM. In kind it is cell-based. The protocol:
(§3) FIG. 18. Effects of prieurianin on C/EBPα and β and PPARγ mediated transcription in adipogenesis. Response elements corresponding to C/EBPα and β and PPARγ are cloned into the pGL3 basic luciferase reporter plasmid. L1 preadipocytes were contransfected with the reporter plasmid either in the presence or the absence of the corresponding transcription factors cloned into expression vector, followed by treatment with 2 μM of prieurianin. Cells were harvested for luciferase assay 15-24 hrs later. Results are means±S.E. of triplicate experiments.

The test system of a further experiment is C/EBPα. Kind of experiment: C/EBPα response element luciferase reporter in L1 preadipocytes. Particulars: prieurianin 2 μM. The class given is cell-based. The protocol:
as §3

Experiment [4] concerns differentiated NIH-3T3/L1 adipocytes. Kind of experiment: Loss of lipid-positive differentiated adipocytes (oil red O, A510; Nile Red). Particulars: 1 μM bufalin, Nile Red. In kind it is cell-based. The protocol:
FIG. 8. Prieurianin induced loss of differentiated adipocytes. NIH-3T3/L1 preadipocytes were induced into differentiation. Five days following differentiation, cells were treated with various concentrations (0.5, 1, and 2 μM) of prieurianin for an additional five days and followed by staining with oil red O. Micrographs were obtained from representatives of triplicate experiments. Isopropanol extracts of positively stained cells were quantified spectrophotometrically at 510 nm as shown in histogram on the right. Results are means±S.E. of triplicate experiments.
as §2
To assess whether prieurianin has any effect on the differentiated adipocytes, the preadipocytes were allowed to differentiate into adipocytes and then were further cultured for about five days before treating the adipocytes with prieurianin for an additional five to six days, followed by oil red O staining for the presence of lipid accumulating adipocytes.

The next experiment deals with C/EBPβ. Kind of experiment: C/EBPβ response element luciferase reporter in L1 preadipocytes. The note with it: prieurianin 2 μM. The class given is cell-based. The procedure:
as §3

The structures appear in SMILES notation. “Also recorded” adds a separate entry of the source.

Consider `CC[C@@]1(O)C(=O)OCc2c1cc1n(c2=O)Cc2cc3c(CN(C)C)c(O)ccc3nc2-1` [topotecan, reference compound], for which, in the experiment with PLTP [1] (adipocytes), the “release of PLTP by adipocytes” value is on record as “induced an increase in the release of only the low molecular weight form of PLTP”. In the experiment on PLTP [1] (preadipocytes), the “release of PLTP by preadipocytes” value is listed as “release of the low but not the high molecular form of PLTP was reduced”. For the same molecule, in experiment [2] (HepG2 cells), the “PLTP expression by Northern blot analysis” value was “induced by topotecan dose-dependently”. In addition, the “induction of PLTP expression” value in [2] (HepG2 cells, DNA microarray, peaking at 24 hrs) is on record as “approximately 20 fold”. Besides, the “onset of PLTP induction following treatment” value in [2] (time-course microarray analysis) is 12 to 15 h. Further, the “serum PLTP protein levels” value with PLTP [3] is given as “a rise in the serum PLTP protein levels”. For the same molecule, in the experiment with PLTP promoter, the “transactivation of PLTP promoter” value is on record as “transactivated by topotecan dose dependently”. Further, the “adiponectin release by preadipocytes” value in the experiment on adiponectin is on record as “significantly inhibited the production of adiponectin”.
On to `CCCCCCCCCCCCCC(=O)O[C@@H]1[C@@H](C)[C@@]2(O)[C@@H](C=C(CO)C[C@]3(O)C(=O)C(C)=C[C@@H]23)[C@@H]2C(C)(C)[C@]12OC(C)=O` [TPA, 12-O-tetradecanoylphorbol-13-acetate], for which the “transactivation of PLTP promoter” value in the experiment on PLTP promoter was “induced PLTP promoter”.
In the case of `C[C@]12CC[C@H](O)C[C@H]1CC[C@@H]1[C@@H]2CC[C@]2(C)[C@@H](c3ccc(=O)oc3)CC[C@]12O` [bufalin, reference compound], the differentiation of preadipocytes result in the experiment with NIH-3T3/L1 preadipocytes (1 μM bufalin, Nile Red) was “did not, however, inhibit the differentiation of preadipocytes”. The “NFκB-response element mediated transcription” value in the experiment on NFκB was “nor did it modulate the transcriptional activity”. The “transactivation potential of PPARγ” value in the experiment on PPARγ is reported as “nor did it modulate the transcriptional activity”. The “transactivation of PLTP promoter” value with PLTP promoter is recorded as “stimulates the PLTP promoter like prieurianin”. For the same molecule, in the experiment with C/EBPα, the “transactivation potential of C/EBPα” value is on record as “nor did it modulate the transcriptional activity”. In addition, the “de-differentiation or delipidation in adipocytes” value in experiment [4] is reported as “neither causes de-differentiation or delipidation in adipocytes”. Moreover, the “transactivation potential of C/EBPβ” value in the experiment on C/EBPβ is “nor did it modulate the transcriptional activity”.
As to `CN[C@@H]1C[C@H]2O[C@@](C)([C@@H]1OC)n1c3ccccc3c3c4c(c5c6ccccc6n2c5c31)C(=O)NC4` [staurosporine], in the experiment on NIH-3T3/L1 preadipocytes (data not shown), the “differentiation, staurosporine alone” value is recorded as “no observable effects on differentiation”. Besides, the “effect on TPA activation of PLTP promoter” value with PLTP promoter (co-treatment with TPA) was “abolished”. Further, the “effect on transactivation of PLTP promoter by prieurianin” value in the experiment with PLTP promoter was “strongly inhibited PLTP transactivation by prieurianin; also recorded: inhibited”.
Regarding `CC(/C=C/C(=O)NO)=C\[C@@H](C)C(=O)c1ccc(N(C)C)cc1` [trichostatin A], the “effect on transactivation of PLTP promoter by prieurianin” value in the experiment on PLTP promoter is “though modest, potentiated the transactivation of PLTP promoter activity by prieurianin”.

Source of the values: patent publication US20100284925A1, “Small Molecule Intervention for Obesity” (priority 2006, published 2010).
